Test results reported in US6586633B1, “Amine derivatives” (Pola Chemical Industries, Inc., priority 2001, dated 2003).
Where two headings read alike, the source gives them in different places.

How the values were obtained:
Test in all cases: Measurement of antifungal activity (minimum inhibitory concentration), agar dilution
Type in all cases: cell-based
M. canis TIMM0760 = details: Sabouraud's agar, one week at 27° C.; for MIC: Microsporum canis, 168 h, read-out: MIC value (minimum compound concentration that definitely inhibited any visible growth)
Experimental: (§1) Measurement of Antifungal Activity (Measurement of Minimum Inhibitory Concentration)
(§2) Antifungal activity of representative compounds of the present invention against dermatophytes was investigated.
(§3) Briefly, strains of dermatophytes to be tested were grown on slant media prepared with Sabouraud's agar (product of Nissuiseiyaku; pepton 1.0%, glucose 4.0%, agar 1.5%, pH 5.9) at 27° C. for two weeks, so as to allow sufficient production of conidiospores. Subsequently, sterilized saline solution containing 0.05% (wt/vol) TWEEN 80 was added thereto, and while the surface of the each medium was scraped with a platinum loop, the conidiospores were deaggregated and suspended in the saline solution. The suspension was filtered through a double face sterilized gauze sheet so as to remove agar and hypha pellets. The filtrate was diluted with a saline solution so as to make the concentration of the conidiospores decrease to 10^6/ml by use of a cytometer, and the resultant dilute filtrate served as a test dermatophytes solution. Meanwhile, a stock solution was prepared by adding 1 ml of dimethylsulfoxide to 10 mg of a compound to be tested. An aliquot (500 μl) of the stock solution was combined with dimethylsulfoxide (500 μl), to thereby prepare a 2-fold dilute solution. Dilution was similarly repeated until 13 different dilute solutions ranging from 10 to 0.0025 mg/ml (concentrations of the ultimate test system: 100-0.025 μg/ml) were obtained. 100 μl each of the diluted solutions of the test compound was dispensed into the sterilized petri dish. A Sabouraud's agar (pepton 1.0%, glucose 4.0%, agar 1.5%, pH 5.9; 10 ml), which had been sterilized and dissolved, was added thereto, and the mixture was thoroughly mixed and solidified. Next, the above-prepared test dermatophytes solution was planted in amounts of 5 μl by use of a microplanter.

M. gypseum IF08231 = details: Sabouraud's agar, one week at 27° C.; for MIC: Nannizzia gypsea, 168 h, read-out: MIC value (minimum compound concentration that definitely inhibited any visible growth)
Experimental: as §1, §2, §3

[1] = test system: T. mentagrophytes IF05811; details: Sabouraud's agar, one week at 27° C.; for MIC: Trichophyton mentagrophytes, 168 h, read-out: MIC value (minimum compound concentration that definitely inhibited any visible growth)
Experimental: as §1, §2, §3

[2] = test system: T. mentagrophytes IF07552; details: Sabouraud's agar, one week at 27° C.; for MIC: Trichophyton mentagrophytes, 168 h, read-out: MIC value (minimum compound concentration that definitely inhibited any visible growth)
Experimental: as §1, §2, §3

[3] = test system: T. mentagrophytes TIMM1177; details: Sabouraud's agar, one week at 27° C.; for MIC: Trichophyton mentagrophytes, 168 h, read-out: MIC value (minimum compound concentration that definitely inhibited any visible growth)
Experimental: as §1, §2, §3

[4] = test system: T. mentagrophytes TIMM1189; details: Sabouraud's agar, one week at 27° C.; for MIC: Trichophyton mentagrophytes, 168 h, read-out: MIC value (minimum compound concentration that definitely inhibited any visible growth)
Experimental: as §1, §2, §3

T. rubrum IF05808 = details: Sabouraud's agar, one week at 27° C.; for MIC: Trichophyton rubrum, 168 h, read-out: MIC value (minimum compound concentration that definitely inhibited any visible growth)
Experimental: as §1, §2, §3

T. rubrum IF09185 = details: Sabouraud's agar, one week at 27° C.; for MIC: Trichophyton rubrum, 168 h, read-out: MIC value (minimum compound concentration that definitely inhibited any visible growth)
Experimental: as §1, §2, §3

T. violaceum TIMM1264 = details: Sabouraud's agar, one week at 27° C.; for MIC: Trichophyton violaceum, 168 h, read-out: MIC value (minimum compound concentration that definitely inhibited any visible growth)
Experimental: as §1, §2, §3

Row | MIC value (minimum compound concentration that definitely inhibited any visible growth) (M. canis TIMM0760) [µg/mL] | MIC value (minimum compound concentration that definitely inhibited any visible growth) (M. gypseum IF08231; M. gypseum IF08231 (Table 2)) [µg/mL] | MIC value (minimum compound concentration that definitely inhibited any visible growth) [1] [µg/mL] | MIC value (minimum compound concentration that definitely inhibited any visible growth) [2] [µg/mL] | MIC value (minimum compound concentration that definitely inhibited any visible growth) [3] [µg/mL] | MIC value (minimum compound concentration that definitely inhibited any visible growth) [4] [µg/mL] | MIC value (minimum compound concentration that definitely inhibited any visible growth) (T. rubrum IF05808) [µg/mL] | MIC value (minimum compound concentration that definitely inhibited any visible growth) (T. rubrum IF09185) [µg/mL] | MIC value (minimum compound concentration that definitely inhibited any visible growth) (T. violaceum TIMM1264) [µg/mL] | MIC (M. canis TIMM0760) [µg/mL] | MIC (M. gypseum IF08231; H. gypseum IF08231 (Table 1)) [µg/mL] | MIC [1] [µg/mL] | MIC [2] [µg/mL] | MIC [3] [µg/mL] | MIC [4] [µg/mL] | MIC (T. rubrum IF05808) [µg/mL] | MIC (T. rubrum IF09185) [µg/mL] | MIC (T. violaceum TIMM1264) [µg/mL] | MIC (M. gypseum IF08231; M. gypseum IF08231 (Table 2)) [µg/mL] | SMILES
1 | 0.39 | 3.12 | 1.56 | 3.12 | 1.56 | 0.78 | 1.56 | 0.78 | 1.56 |  |  |  |  |  |  |  |  |  |  | C/C=C(/C)c1cccc(CN(C)Cc2ccc(C(C)(C)C)cc2)c1.Cl [Compound 97, cis-N-(4-tert-Butylbenzyl)-N-methyl-[3-(1-methyl-1-propenyl)benzyl]amine Hydrochloride]
2 |  |  |  |  |  |  |  |  |  | 0.2 | 0.39 | 0.39 | 0.39 | 0.39 | 0.39 | 0.39 | 0.39 | 0.39 |  | C=C(C)c1cccc(CN(CC)C/C=C/C#CC(C)(C)C)c1.Cl [Compound 45, trans-N-(6,6-Dimethyl-2-hepten-4-ynyl)-N-ethyl-(3-isopropenylbenzyl)amine Hydrochloride]
3 |  |  |  |  |  |  |  |  |  | 0.1 | 0.39 | 0.1 | 0.2 | 0.1 | 0.2 | 0.1 | 0.1 | 0.1 |  | C=C(C)c1cccc(CN(C)C/C=C/C#CC(C)(C)C)c1.Cl [Compound 3, trans-N-(6,6-Dimethyl-2-hepten-4-ynyl)-N-methyl-(3-isopropenylbenzyl)amine Hydrochloride]
4 |  |  |  |  |  |  |  |  |  | 0.1 |  | 0.1 | 0.1 | 0.2 | 0.1 | 0.05 | 0.1 | 0.1 | 0.2 | C=C(C)c1cc(F)cc(CN(C)Cc2ccc(C(C)(C)C)cc2)c1.Cl [Compound 101, N-(4-tert-Butylbenzyl)-N-methyl-(3-fluoro-5-isopropenylbenzyl)amine Hydrochloride]
5 |  |  |  |  |  |  |  |  |  | 0.2 |  | 0.39 | 0.39 | 0.39 | 0.78 | 0.2 | 0.39 | 0.78 | 0.39 | C=Cc1cccc(CN(C)Cc2ccc(C(C)(C)C)cc2)c1.Cl [Compound 81, N-(4-tert-Butylbenzyl)-N-methyl-(3-vinylbenzyl)amine Hydrochloride]
6 |  |  |  |  |  |  |  |  |  | 0.2 | 0.78 | 0.39 | 0.39 | 0.39 | 0.39 | 0.39 | 0.39 | 0.78 |  | C=Cc1cccc(CN(C)C/C=C/C#CC(C)(C)C)c1.Cl [Compound 10, trans-N-(6,6-Dimethyl-2-hepten-4-ynyl)-N-methyl-(3-vinylbenzyl)amine Hydrochloride]
7 |  |  |  |  |  |  |  |  |  | 0.2 |  | 0.78 | 0.39 | 0.39 | 0.39 | 0.2 | 0.2 | 0.39 | 0.2 | C=C(C)c1cccc(CN(CC)Cc2ccc(C(C)(C)C)cc2)c1.Cl [Compound 114, N-(4-tert-Butylbenzyl)-N-ethyl-(3-isopropenylbenzyl)amine Hydrochloride]
8 |  |  |  |  |  |  |  |  |  | 1.56 | 12.5 | 6.25 | 12.5 | 12.5 | 6.25 | 1.56 | 3.12 | 6.25 |  | C=C(C)c1cc(CN(C)C/C=C/C#CC(C)(C)C)ccc1C.Cl [Compound 74, trans-N-(6,6-Dimethyl-2-hepten-4-ynyl)-N-methyl-(3-isopropenyl-4-methylbenzyl)amine Hydrochloride]
